# In article PMC9292215 (Clinical Pharmacology and Therapeutics, 2021):
# Test: Plasma pharmacokinetics of BIA 10-2474 and metabolites
# Assay type: in vivo, human
# Conditions: for Cmax / Tmax / AUC(0-inf) / AUC(0-t) / clearance / half-life / concentration at 10 day / AUC: human, plasma, oral; for AUC(0-t): AUC0–t; for clearance: CL; for AUC: AUC0–τ
# [1] = both, 0.25 mg, single dose 0.25 mg
# [2] = both, 1.25 mg, single dose 1.25 mg
# [3] = both, 2.5 mg, single dose 2.5 mg
# [4] = both, 100 mg, single dose 100 mg
# [5] = 2.5 mg, 2.5 mg once daily, Day 1
# [6] = 2.5 mg, 2.5 mg once daily, Day 10
structure (smiles),measurement,setting,value
"CN(C(=O)n1cnc(-c2ccc[n+]([O-])c2)c1)C1CCCCC1 [BIA 10-2474, 3-(1-(cyclohexyl(methyl)carbamoyl)-1H-imidazol-4-yl)pyridine 1-oxide]",V/F,"2.5 mg once daily, Day 1",56.1 (18.7) L
same,Racc,"2.5 mg once daily, Day 10",1.15
same,V/F,"2.5 mg once daily, Day 10",57.0 (26.0) L
same,V/F,"5 mg once daily, Day 1",63.2 (20.4) L
same,Racc,"5 mg once daily, Day 10",1.31
same,V/F,"5 mg once daily, Day 10",65.3 (17.4) L
same,V/F,"10 mg once daily, Day 1",69.0 (22.8) L
same,Racc,"10 mg once daily, Day 10",1.59
same,V/F,"10 mg once daily, Day 10",61.4 (17.9) L
same,V/F,"20 mg once daily, Day 1",66.3 (7.34) L
same,Racc,"20 mg once daily, Day 10",1.57
same,V/F,"20 mg once daily, Day 10",64.1 (15.4) L
same,V/F,"50 mg once daily, Day 1",67.9 (9.78) L
same,"accumulation ratio, based on AUC0–24h",Day 10,< 2
same,Overall fold increase in AUC0–τ,MAD Day 1,19.6
same,Overall fold increase in Cmax,MAD Day 1,14.5
same,Fold increase in AUC0–τ,"MAD Day 1, 2.5 to 5 mg",1.8
same,Fold increase in Cmax,"MAD Day 1, 2.5 to 5 mg",1.7
same,Fold increase in AUC0–τ,"MAD Day 1, 5 to 10 mg",2.0
same,Fold increase in Cmax,"MAD Day 1, 5 to 10 mg",1.9
same,Fold increase in AUC0–τ,"MAD Day 1, 10 to 20 mg",2.1
same,Fold increase in Cmax,"MAD Day 1, 10 to 20 mg",2.0
same,Fold increase in AUC0–τ,"MAD Day 1, 20 to 50 mg",2.6
same,Fold increase in Cmax,"MAD Day 1, 20 to 50 mg",2.3
same,Overall fold increase in AUC0–τ,MAD Day 10,8.84
same,Overall fold increase in Cmax,MAD Day 10,7.53
same,Fold increase in AUC0–τ,"MAD Day 10, 2.5 to 5 mg",1.7
same,Fold increase in Cmax,"MAD Day 10, 2.5 to 5 mg",1.6
same,Fold increase in AUC0–τ,"MAD Day 10, 5 to 10 mg",2.4
same,Fold increase in Cmax,"MAD Day 10, 5 to 10 mg",2.2
same,Fold increase in AUC0–τ,"MAD Day 10, 10 to 20 mg",2.1
same,Fold increase in Cmax,"MAD Day 10, 10 to 20 mg",2.1
same,Fold increase in Cmax,"SAD, 1.25 to 2.5 mg",1.9
same,Fold increase in AUC0–t,"SAD, 2.5 to 5 mg",2.4
same,Fold increase in Cmax,"SAD, 2.5 to 5 mg",2.7
same,Fold increase in AUC0–t,"SAD, 5 to 10 mg",2.1
same,Fold increase in Cmax,"SAD, 5 to 10 mg",1.7
same,Fold increase in AUC0–t,"SAD, 10 to 20 mg",2.8
same,Fold increase in Cmax,"SAD, 10 to 20 mg",2.1
same,Fold increase in AUC0–t,"SAD, 20 to 40 mg",2.2
same,Fold increase in Cmax,"SAD, 20 to 40 mg",2.6
same,Fold increase in AUC0–t,"SAD, 40 to 100 mg",2.6
same,Fold increase in Cmax,"SAD, 40 to 100 mg",2.2
same,Overall fold increase in AUC0–t,"SAD, over the dosage range",19.6
same,Cmax,[1],3.1 ng/mL
same,Tmax,[1],2 h
same,AUC(0-inf),"both, 1.25 mg",142 ng·h/mL
same,AUC(0-t),[2],98 ng·h/mL
same,clearance,[2],155 mL/min
same,Cmax,[2],16.2 ng/mL
same,half-life,"both, 1.25 mg, t1/2, single dose 1.25 mg",6.54 h
same,Tmax,[2],1.5 h
same,AUC(0-inf),"both, 2.5 mg",338 ng·h/mL
same,AUC(0-t),[3],289 ng·h/mL
same,clearance,[3],131 mL/min
same,Cmax,[3],31.2 ng/mL
same,half-life,"both, 2.5 mg, t1/2, single dose 2.5 mg",7.04 h
same,Tmax,[3],1.5 h
same,AUC(0-t),"both, 5 mg, single dose 5 mg",693 ng·h/mL
same,Cmax,"both, 5 mg, single dose 5 mg",85.4 ng/mL
same,Tmax,"both, 5 mg, single dose 5 mg",2 h
same,clearance,"both, 40 mg, single dose 40 mg",116 mL/min
same,half-life,"both, 40 mg, t1/2, single dose 40 mg",7.84 h
same,Tmax,"both, 40 mg, single dose 40 mg",2 h
same,AUC(0-inf),"both, 100 mg",23200 ng·h/mL
same,AUC(0-t),[4],23000 ng·h/mL
same,clearance,[4],75.2 mL/min
same,Cmax,[4],1770 ng/mL
same,half-life,"both, 100 mg, t1/2, single dose 100 mg",9.13 h
same,Tmax,[4],2 h
same,half-life,"both, drug half-life in plasma",6 to 10 h
same,half-life,"both, mean terminal elimination half-life, Day 10",8 to 10 h
same,concentration at 10 day,2.5 mg,6.24 ng/mL
same,AUC(0-t),[5],384 ng·h/mL
same,AUC,[5],397 ng·h/mL
same,AUC,[6],526 ng·h/mL
same,clearance,[5],98.3 mL/min
same,clearance,[6],81.5 mL/min
same,Cmax,[5],46 ng/mL
same,Cmax,[6],52.6 ng/mL
same,half-life,"2.5 mg, t1/2, 2.5 mg once daily, Day 1",6.73 h
same,half-life,"2.5 mg, t1/2, 2.5 mg once daily, Day 10",8.04 h
same,Tmax,[5],2 h
same,Tmax,[6],2 h
same,AUC(0-inf),5 mg,752 ng·h/mL
same,concentration at 10 day,5 mg,10.8 ng/mL
same,AUC(0-t),"5 mg, 5 mg once daily, Day 1",695 ng·h/mL
same,AUC,"5 mg, 5 mg once daily, Day 1",708 ng·h/mL
same,AUC,"5 mg, 5 mg once daily, Day 10",909 ng·h/mL
same,clearance,"5 mg, 5 mg once daily, Day 1",125 mL/min
same,clearance,"5 mg, 5 mg once daily, Day 10",101 mL/min
same,clearance,"5 mg, single dose 5 mg",114 mL/min
